Where a name gives a salt, the structure may show the parent alone.
Test: solubility in water
Assay type: physicochemical
Conditions: stated in words in the process description

solubility in water: sparingly soluble
SMILES: Cc1ccc(NC(=O)C2(c3ccc4c(c3)OC(F)(F)O4)CC2)nc1-c1cccc(C(=O)O)c1 [compound 9, 3-(6-(1-(2,2-difluorobenzo[d][1,3]dioxol-5-yl)cyclopropanecarboxamido)-3-methylpyridin-2-yl)benzoic acid.HCL salt]
